Data set [1] has as its system human memory B cells. Briefly: CD40L induced plasmablast differentiation of memory B cells, flow cytometry. In kind it is cell-based. The text has this:
It was confirmed that plasmablast differentiation was regulated by Bruton's Tyrosine Kinase (BTK) activity by performing an in vitro plasmablasts differentiation assay where human memory B cells were put into differentiating conditions, and were subsequently measured after 5 days using flow cytometry quantification for CD20^loCD38^++ plasmablasts. […] GDC-0852 is (S)-2-(5-Fluoro-2-(hydroxymethyl)-3-(1-methyl-5-(5-(2-methyl-4-(oxetan-3-y-1)piperazin-1-yl)pyridin-2-ylamino)-6-oxo-1,6-dihydropyridin-3-yl)-phenyl)-3,4,6,7,8,9-hexahydropyrido[3,4-b]indolizin-1(2H)-one, the structure of which is shown below:
Plasmablast Differentiation: Memory B cells were isolated from Healthy donor PBMC (Miltenyi Memory B cell isolation kit). […]
(§1) Statistical analyses were performed using either <> or custom scripts written in the R programming language. […] IC50 values for BTK inhibition was calculated using the GraphPad Prism software. […]
(§2) Results: The differentiation of B cells into plasmablast can occur through multiple activation stimuli and involves distinct molecular changes. […] We evaluated the effect of the BTK inhibitor GDC-0852 in the plasmablast differentiation process, either by a T cell-mediated response using CD40L stimulation or a T cell-independent response using the Toll-like receptor ligand, CpG.
(A flow cytometer gives signals particle by particle.)

Data set [2] concerns human memory B cells. Nature of the data set: CpG-mediated plasmablast differentiation of memory B cells, flow cytometry. In kind it is cell-based. The conditions noted are these: B-cell, memory B cells from healthy donors, ODN2006 5 ug/ml plus cytokines, n=3, read-out: IC50 potency, inhibition of CpG-mediated plasmablast differentiation. The method, then: (§3) Plasmablast Differentiation: Memory B cells were isolated from Healthy donor PBMC (Miltenyi Memory B cell isolation kit). For the Plasmablast differentiation, 1.5×10^5/ml memory B cells were then cultured in the presence of a cocktail of cytokines, IL-2(20 U/ml), IL-10 (50 ng/ml), IL-15(10 ng/ml), IL-6 (50 ng/ml), IFNa (10 ng/ml) and stimulated with either ODN2006 (TLR-9 ligand) 5 ug/ml, or CD40L (3 ug/ml) for 5 days. The plasmablast differentiation was carried out in the presence of vehicle alone (DMSO) and GDC-0852 at various concentrations, using a 3 fold dose titration of inhibitor starting at 10 uM. Flow cytometry was performed to enumerate ([…]) plasmablast percentages and assess the inhibition by GDC-0852.
as §1, §2

The subject of data set [3] is plasmablast signature genes IgJ, MZB1, TXNDC5. Briefly: Plasmablast signature gene expression in differentiated memory B cells, Fluidigm quantitative RT-PCR. Type of data set: cell-based, human. The conditions noted are these: 370 nM vs DMSO, 5 days, n=4 donors. The method, then:
FIGS. 8A, 8B, 8C and 8D. BTK inhibition reduces the plasmablast gene signature. Memory B cells from 4 healthy donors were differentiated into plasmablasts using conditions described above, in the presence of DMSO vehicle or 370 nM GDC-0852. Expression of plasmablast signature genes was measured by Fluidigm, and normalized to a housekeeping gene (HPRT1). Expression values are plotted as the relative transcript abundance to the housekeeping gene. The plasmablast signature was calculated as the geometric mean of the relative abundances of the three individual genes.
as §3
RNA Preparation: RNA was extracted from the cells in culture at 5 days from the DMSO and GDC-0852 (370 nM) treated cells (n=4). Cells were disrupting in RLT buffer using the Qiashredder (Qiagen, Valencia, Calif.) and then RNA was extracted using the RNeasy mini kit (Qiagen) including the on-column DNase digestion. The concentration of total RNA and integrity of RNA samples was determined using the NanoDrop 8000 (Thermo Scientific). The isolated RNA was used for the Fluidigm quantitative RT-PCR analyses.
QT PCR: cDNA synthesis was performed on 100 ng total-RNA using an iScript cDNA synthesis kit (Biorad, Hercules, Calif.). Gene-specific pre-amplification was performed (Applied Biosystems) for 3 genes (IgJ, MZB1, TXNDC5 including housekeeping genes TMEM55B. RT-PCR was performed using the BioMark 48.48 Dynamic Arrays (Fluidigm Corporation) using the manufacturer's protocol. Data were collected using the BioMark Data Collection Software and CT values were obtained using the BioMark RT-PCR Analysis Software (V.2.1.1, Fluidigm). The relative abundance (dCt) to HPRT1 was calculated: 2 log−(average Ct gene−average Ct HPRT1). For statistical analyses, values below the lower limit of detection were set to be 1 Ct lower than the lowest recorded value.
as §1

The subject of data set [4] is plasmablast signature. Briefly: Plasmablast signature in blood of extra-renal lupus patients, EXPLORER clinical trial. Type of data set: in vivo, human. Conditions: for expression of the plasmablast signature compared to patients treated with azathioprine: screening samples. How it is done: (§4) Blood Sample Analysis: 3-gene plasmablast signature expression assay. Blood was collected in PAXgene RNA tubes (PreAnalytiX); total RNA was extracted using commercially available kits according to manufacturer instructions (Qiagen).
(§5) Alternatively, expression of candidate biomarker genes in blood samples was quantified by Fluidigm qPCR assays. 3-gene score was calculated from the mean of IgJ, TXNDC5 and MZB1, and normalized using reference gene TMEM55B. Blood samples were assessed using this assay developed on the Cobas 4800 platform (Roche Molecular Systems).
(§6) Plasmablast signature values were collected from two cohorts of moderate to severe lupus patients from phase II clinical trials assessing the safety and efficacy of rituximab in SLE. The cohorts were patients with either lupus nephritis (LUNAR) or extra-renal lupus (EXPLORER). Mixed effects modeling of plasmablast signature values over the course of treatment, incorporating covariates for age, race, concomitant medications, interferon activity, SLEDAI, visit, treatment arm and their interaction, with patient modeled as a random effect, identified a profound decrease in plasmablast signature specifically within the rituximab treated patients (FIG. 4A, 4B). This effect was most apparent in the time points two weeks after receiving rituximab infusion, with diminishing effect over time.
In the EXPLORER trial, patients were monitored for presence of antibodies directed against mouse-human chimeric antibodies (HACA). […] Using the same linear mixed effects model, as above, a 2.8-fold higher expression of plasmablast marker genes was found in patients that went on to develop HACA (p=0.0007).
Previous studies identified an association between different immunosuppressive treatments and reduced expression of plasmablast-associated genes.

In data set [5] the test system is plasmablast signature. Nature of the data set: Plasmablast signature in blood of lupus nephritis patients, LUNAR clinical trial. In kind it is in vivo, human. How it is done:
as §4, §5
as §6, with “time. […]” for “time.”

By IC50 is commonly meant the concentration needed to halve the response being measured. In the case of `C[C@H]1CN(C2COC2)CCN1c1ccc(Nc2cc(-c3cc(F)cc(N4CCc5c(cc6n5CCCC6)C4=O)c3CO)cn(C)c2=O)nc1` [GDC-0852, (S)-2-(5-Fluoro-2-(hydroxymethyl)-3-(1-methyl-5-(5-(2-methyl-4-(oxetan-3-y-1)piperazin-1-yl)pyridin-2-ylamino)-6-oxo-1,6-dihydropyridin-3-yl)-phenyl)-3,4,6,7,8,9-hexahydropyrido[3,4-b]indolizin-1(2H)-one], the IC50 in data set [1] (Homo sapiens, B-cell, 120 h, memory B cells from healthy donors, CD40L 3 ug/ml plus cytokines, day 5, FACS, read-out: IC50 potency, inhibition of CD40L induced plasmablast differentiation) is 20 nM; in data set [2] it was 48 nM. Further, the “inhibition of CD40L induced plasmablast differentiation” value in data set [1] (human memory B cells, measured after 5 days, CD20loCD38++ plasmablasts by flow cytometry) was “inhibited CD40L induced plasmablast differentiation in a dose-dependent manner”. The “expression of plasmablast signature gene MZB1” value in data set [3] (p=0.0023) is listed as “significant decrease”. Besides, the “composite plasmablast 3 gene signature” value in data set [3] (p=0.0026) is on record as “significant decrease”. For the same molecule, the “expression of plasmablast signature gene TXNDC5” value in data set [3] (p=0.0032) is listed as “significant decrease”. Further, in data set [3] (p=0.011), the “expression of plasmablast signature gene IgJ” value was “significant decrease”.

`CN(Cc1cnc2nc(N)nc(N)c2n1)c1ccc(C(=O)N[C@@H](CCC(=O)O)C(=O)O)cc1` [methotrexate]: the “expression of the plasmablast signature compared to patients treated with azathioprine” value in data set [4] was “much lower expression”.

As for `COc1c(C)c2c(c(O)c1C/C=C(\C)CCC(=O)OCCN1CCOCC1)C(=O)OC2` [mycophenolate, mycophenolate mofetil], the “expression of the plasmablast signature compared to patients treated with azathioprine” value in data set [4] is recorded as “much lower expression”. Also, the “expression of plasmablast signature genes in patients on treatment at baseline” value in data set [5] (baseline, relatively few patients in the MMF pool) is “trend toward lower expression”.

Take rituximab: in data set [4] (HACA-positive patients), the “change in plasmablast signature after treatment in patients that went on to develop anti-drug antibodies (HACA)” value is listed as “limited to no decrease”. In addition, the “maximum decrease in plasmablast signature” value in data set [4] (week 28, two weeks following the fourth infusion, p=2×10^−11) turned out to be 3.48 fold. Also, in data set [5] (week 28 time point, p=0.0011), the “reduction of plasmablast signature expression” value came out at 3.31 fold.
